This note sets out measurements from US11208404B2 (PERENNA PHARMACEUTICALS, INC., priority 2017, dated 2021).

The target of experiment [1] is T1, ALCAT1 (Homo sapiens (Human), UniProt Q6UWP7). Nature of the experiment: Cell-based assay for ALCAT inhibitor compounds (H9C2 cells). The note with it: H9c2, 3 μM compound; H9C2 vector cell line and H9C2 with stable overexpression of ALCAT1. The method, then: The assay was performed on the H9C2 vector cell line and H9C2 with stable overexpression of ALCAT1. Materials used in the protocol were CoA, LPG, compounds, chloroform, methanol, 0.9% KCl, 6-well-plates, 1.5 mL tubes, DMEM, FBS, P/S and PBS.
Cells were seeded in 6-well-plates, 8×10^5 cells/well, and cultured at 37° C. in 5% CO2 overnight.
Cells were washed once with ice-cold PBS, collected in ice-cold PBS and centrifuged at 5000 rpm for 5 min at 4° C. 200 μL of chloroform: methanol (2:1) was added to the cell pellet, which was vortexed to suspend the cells and incubated at RT for 1 hr.
40 μL of 0.9% KCl was added and the sample was vortexed before centrifugation at 10000 rpm for 5 min at RT. The aqueous phase (upper layer) was discarded and the organic phase (lower layer) was loaded to a TLC plate (10 cm×20 cm), 40 μL/sample.
The plates were developed in chloroform: methanol: water (65:25:4) for about 30 min and scanned using a Typhoon Scanner. The bands intensity was analysed using ImageJ and the inhibition activity of the tested compounds was calculated.
Compound inhibitors for ALCAT1 enzyme were analyzed by an in vitro cell-based assay as detailed above.
Target sequence in this assay (Q6UWP7 whole entry, species assumed): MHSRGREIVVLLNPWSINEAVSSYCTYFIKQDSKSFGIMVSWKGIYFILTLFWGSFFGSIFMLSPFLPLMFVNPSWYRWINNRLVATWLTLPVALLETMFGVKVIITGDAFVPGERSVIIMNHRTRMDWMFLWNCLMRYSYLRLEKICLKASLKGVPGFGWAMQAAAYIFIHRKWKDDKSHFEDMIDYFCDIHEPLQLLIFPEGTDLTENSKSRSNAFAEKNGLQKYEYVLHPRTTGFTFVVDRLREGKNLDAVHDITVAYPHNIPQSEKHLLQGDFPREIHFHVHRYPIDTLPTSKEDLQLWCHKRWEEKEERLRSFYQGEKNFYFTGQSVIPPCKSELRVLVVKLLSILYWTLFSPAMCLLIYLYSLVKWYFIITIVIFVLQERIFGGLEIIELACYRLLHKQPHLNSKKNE

The target of experiment [2] is T1, ALCAT1. Nature of the experiment: In vitro acyltransferase assay for ALCAT1 inhibitors. The class given is biochemical. The settings on record: for % inh @ 1 μM / inhibition at 1 µM: 1 μM compound, in vitro enzymatic assay; for IC50: ALCAT1 enzyme activity. The procedure, abridged:
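Membrane fractions from Sf9 cells expressing human ALCAT1 incubated 30 min at room temperature with 100 µM MLCL or LPG and 25 µM [14C]acyl-CoA (or 100 µM NBD-CoA) in 50 mM Tris/HCl pH 7.0.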
Target sequence in this assay (Q6UWP7 whole entry): as the sequence (Q6UWP7 whole entry, species assumed) above

Setting [3] is: read-out: IC50 values (upper bounds).
Setting [4] is: triplicates, GraphPad, read-out: IC50.

Read-outs that look alike come from different tables or passages of the source. A value given as a limit tells only on which side of the number the result lay.

The inhibition is the percentage by which the read-out fell short of the control. Low readings indicate little suppression, high ones strong suppression. A word on the IC50: it is the point on the concentration scale where inhibition reaches its midpoint. At ALCAT1 [1], `CCOc1ccc(Cl)cc1C(=O)Nc1cc(-c2nnc(-c3ccco3)o2)ccc1F` [Compound 216, 5-chloro-2-ethoxy-N-(2-fluoro-5-(5-(furan-2-yl)-1,3,4-oxadiazol-2-yl)phenyl)benzamide] had an inhibition at 3 µM of 45%. Also, on ALCAT1 [2], the “% inh @ 1 μM” value is 100/100% and the inhibition at 1 µM is 100%. Besides, on ALCAT1 [2] (setting [3]), the half-maximal inhibitory concentration (IC50) is under 100 nM. On ALCAT1 [2] (setting [4]), the IC50 is 19 nM.

Turning to `CCOc1ccc(CC)cc1C(=O)Nc1cccc(-c2nnc(-c3ccco3)o2)c1` [Compound 219, 2-Ethoxy-5-ethyl-N-(3-(5-(furan-2-yl)-1,3,4-oxadiazol-2-yl)phenyl)benzamide], at ALCAT1 [1], the inhibition at 3 µM is 22%. At ALCAT1 [2], the “% inh @ 1 μM” value is recorded as 98% and at 1 µM the inhibition was 99%. Moreover, at ALCAT1 [2] (setting [3]), the IC50 is under 100 nM. Also, the half-maximal inhibitory concentration (IC50) on ALCAT1 [2] (setting [4]) worked out at 34 nM.

For `CCOc1ccc(C)cc1C(=O)Nc1cc(-c2nnc(-c3ccco3)o2)ccc1F` [Compound 221, 2-Ethoxy-N-(2-fluoro-5-(5-(furan-2-yl)-1,3,4-oxadiazol-2-yl)phenyl)-5-methylbenzamide], on ALCAT1 [1], 3 µM produced 38% inhibition. At ALCAT1 [2], the “% inh @ 1 μM” value is 100/100% and the inhibition at 1 µM was found to be 100%. For the same molecule, at ALCAT1 [2] (setting [3]), the half-maximal inhibitory concentration (IC50) was under 100 nM. Further, the IC50 on ALCAT1 [2] (setting [4]) was 31 nM.

`CCOc1ccc(CC)cc1C(=O)Nc1cc(-c2nnc(-c3ccco3)o2)ccc1F` [Compound 222, 2-Ethoxy-5-ethyl-N-(2-fluoro-5-(5-(furan-2-yl)-1,3,4-oxadiazol-2-yl)phenyl)benzamide]: on ALCAT1 [1], the inhibition at 3 µM was 85%. Also, on ALCAT1 [2], the “% inh @ 1 μM” value is 97% and the inhibition at 1 µM is 100%. Also, the half-inhibitory concentration (IC50) on ALCAT1 [2] (setting [3]) is under 35 nM. Also, the concentration for half-maximal inhibition (IC50) at ALCAT1 [2] (setting [4]) came out at 8 nM.

In turn, `COc1ccc(OC(F)(F)F)cc1C(=O)Nc1cccc(-c2nnc(-c3ccco3)o2)c1` [Compound 279, N-(3-(5-(Furan-2-yl)-1,3,4-oxadiazol-2-yl)phenyl)-2-methoxy-5-(trifluoromethoxy)benzamide] displayed an inhibition at 3 µM at ALCAT1 [1] of 7%. Besides, on ALCAT1 [2], testing at 1 µM gave an inhibition of 97%. At ALCAT1 [2] (setting [4]), the IC50 was determined as 60 nM.

In turn, `CCCc1ccc(OC)c(C(=O)Nc2cc(-c3nnc(-c4ccco4)o3)ccc2F)c1` [Compound 281, N-(2-Fluoro-5-(5-(furan-2-yl)-1,3,4-oxadiazol-2-yl)phenyl)-2-methoxy-5-propylbenzamide] displayed an inhibition at 3 µM against ALCAT1 [1] of 65%. In addition, the “% inh @ 1 μM” value at ALCAT1 [2] was determined as 97%. This molecule returned an inhibition at 1 µM against ALCAT1 [2] of 100%. Further, the IC50 on ALCAT1 [2] (setting [3]) is under 100 nM; on ALCAT1 [2] (setting [4]), 24 nM.

For the molecule `COc1ccc(C)cc1C(=O)Nc1cc(-c2nnc(-c3ccco3)o2)ccc1F` [Compound 300, N-(2-Fluoro-5-(5-(furan-2-yl)-1,3,4-oxadiazol-2-yl)phenyl)-2-methoxy-5-methylbenzamide], on ALCAT1 [1], at 3 µM the inhibition was 31%. In addition, the inhibition at 1 µM on ALCAT1 [2] was 96%. For the same molecule, the values for the IC50 at ALCAT1 [2] (setting [3]) and on ALCAT1 [2] (setting [4]) were under 100 nM and 30 nM, respectively.

The molecule `O=C(Nc1cc(-c2nnc(-c3ccco3)o2)ccc1F)c1ccccc1OC(F)F` [Compound 302, 2-(Difluoromethoxy)-N-(2-fluoro-5-(5-(furan-2-yl)-1,3,4-oxadiazol-2-yl)phenyl)benzamide] displayed an inhibition at 3 µM against ALCAT1 [1] of 20%. For the same molecule, at 1 µM the inhibition against ALCAT1 [2] was 97%. The IC50 on ALCAT1 [2] (setting [4]) came to 36 nM.

For the molecule `O=C(Nc1cc(-c2nnc(-c3ccco3)o2)ccc1F)c1cc(Cl)ccc1OC(F)(F)F` [Compound 304, 5-Chloro-N-(2-fluoro-5-(5-(furan-2-yl)-1,3,4-oxadiazol-2-yl)phenyl)-2-(trifluoromethoxy)benzamide], the inhibition at 3 µM on ALCAT1 [1] came to 31%. Further, on ALCAT1 [2], the “% inh @ 1 μM” value is recorded as 96% and the inhibition at 1 µM is 98%. For the same molecule, the concentration for half-maximal inhibition (IC50) at ALCAT1 [2] (setting [3]) was under 100 nM. Further, the IC50 on ALCAT1 [2] (setting [4]) was 20 nM.

With `O=C(Nc1cc(-c2nnc(-c3ccco3)o2)ccc1F)c1cc(Cl)ccc1OC(F)F` [Compound 305, 5-Chloro-2-(difluoromethoxy)-N-(2-fluoro-5-(5-(furan-2-yl)-1,3,4-oxadiazol-2-yl)phenyl)benzamide], the inhibition at 3 µM against ALCAT1 [1] came to 34%. At ALCAT1 [2], this molecule showed an inhibition at 1 µM of 100%. Further, the figures for the IC50 at ALCAT1 [2] (setting [3]) and on ALCAT1 [2] (setting [4]) were under 100 nM and 21 nM, respectively.

The molecule `O=C(Nc1cc(-c2nnc(-c3ccco3)o2)ccc1F)c1cc(Cl)ccc1OCF` [Compound 306, 5-Chloro-N-(2-fluoro-5-(5-(furan-2-yl)-1,3,4-oxadiazol-2-yl)phenyl)-2-(fluoromethoxy)benzamide] gave an inhibition at 3 µM at ALCAT1 [1] of 30%. At ALCAT1 [2], this molecule gave an inhibition at 1 µM of 100%. The 50% inhibitory concentration (IC50) was under 100 nM on ALCAT1 [2] (setting [3]) and 19 nM at ALCAT1 [2] (setting [4]).

Turning to `O=C(Nc1cc(-c2nnc(-c3ccco3)o2)ccc1F)c1cc(F)ccc1OCCF` [Compound 312, 5-Fluoro-N-(2-fluoro-5-(5-(furan-2-yl)-1,3,4-oxadiazol-2-yl)phenyl)-2-(2-fluoroethoxy)benzamide], the inhibition at 3 µM at ALCAT1 [1] came to 4%. On ALCAT1 [2], this molecule gave an inhibition at 1 µM of 98%. The half-inhibitory concentration (IC50) on ALCAT1 [2] (setting [3]) was under 100 nM; at ALCAT1 [2] (setting [4]), 33 nM.

`O=C(Nc1cc(-c2nnc(-c3ccco3)o2)ccc1F)c1ccccc1OCC(F)(F)F` [Compound 313, N-(2-Fluoro-5-(5-(furan-2-yl)-1,3,4-oxadiazol-2-yl)phenyl)-2-(2,2,2-trifluoroethoxy)benzamide] returned an inhibition at 3 µM against ALCAT1 [1] of 19%. For the same molecule, at ALCAT1 [2], the inhibition at 1 µM stood at 94%. Moreover, the IC50 on ALCAT1 [2] (setting [4]) was determined as 64 nM.

`O=C(Nc1cc(-c2nnc(-c3ccco3)o2)ccc1F)c1ccccc1OCC(F)F` [Compound 314, 2-(2,2-Difluoroethoxy)-N-(2-fluoro-5-(5-(furan-2-yl)-1,3,4-oxadiazol-2-yl)phenyl)benzamide] came in with an inhibition at 3 µM at ALCAT1 [1] of 36%. The inhibition at 1 µM at ALCAT1 [2] amounted to 95%. Besides, the IC50 is under 100 nM at ALCAT1 [2] (setting [3]) and 29 nM on ALCAT1 [2] (setting [4]).

Turning to `O=C(Nc1cc(-c2nnc(-c3ccco3)o2)ccc1F)c1cc(Cl)ccc1OCC(F)F` [Compound 317, 5-Chloro-2-(2,2-difluoroethoxy)-N-(2-fluoro-5-(5-(furan-2-yl)-1,3,4-oxadiazol-2-yl)phenyl)benzamide], at ALCAT1 [1], the inhibition at 3 µM is 52%. Moreover, on ALCAT1 [2], the inhibition at 1 µM stood at 96%. Further, the IC50 was under 100 nM at ALCAT1 [2] (setting [3]) and 19 nM at ALCAT1 [2] (setting [4]).

`O=C(Nc1cc(-c2nnc(-c3ccco3)o2)ccc1F)c1cc(Cl)ccc1OCCF` [Compound 318, 5-Chloro-N-(2-fluoro-5-(5-(furan-2-yl)-1,3,4-oxadiazol-2-yl)phenyl)-2-(2-fluoroethoxy)benzamide] registered an inhibition at 3 µM against ALCAT1 [1] of 36%. Also, at 1 µM the inhibition on ALCAT1 [2] was 98%. Moreover, the half-inhibitory concentration (IC50) is under 100 nM at ALCAT1 [2] (setting [3]) and 24 nM at ALCAT1 [2] (setting [4]).

With `O=C(Nc1cc(-c2nnc(-c3ccco3)o2)ccc1F)c1cc(F)ccc1OCC(F)(F)F` [Compound 319, 5-Fluoro-N-(2-fluoro-5-(5-(furan-2-yl)-1,3,4-oxadiazol-2-yl)phenyl)-2-(2,2,2-trifluoroethoxy)benzamide], 3 µM produced 12% inhibition at ALCAT1 [1]. The molecule further yielded an inhibition at 1 µM against ALCAT1 [2] of 96%. The half-inhibitory concentration (IC50) at ALCAT1 [2] (setting [4]) came out at 46 nM.

In turn, `O=C(Nc1cc(-c2nnc(-c3ccco3)o2)ccc1F)c1cc(F)ccc1OCC(F)F` [Compound 320, 2-(2,2-Difluoroethoxy)-5-fluoro-N-(2-fluoro-5-(5-(furan-2-yl)-1,3,4-oxadiazol-2-yl)phenyl)benzamide] had an inhibition at 3 µM on ALCAT1 [1] of 17%. This molecule registered an inhibition at 1 µM at ALCAT1 [2] of 96%. Besides, the values for the IC50 on ALCAT1 [2] (setting [3]) and at ALCAT1 [2] (setting [4]) were under 100 nM and 34 nM, respectively.
